Patent publication US20250281453A1, “COMBINATION THERAPIES COMPRISING QTX125” (QUIMATRYX, S.L., priority 2022, published 2025)

Assays:
[1] = tested on: HCT-116 colonic cancer cells; test: Cell viability, ALAMAR blue assay, monotherapy; type: cell-based
Procedure: (§1) In brief, HCT-116, MiaPaCa-2 and Panc-1 cells were thawed in high glucose DMEM (Sigma D5796) with 10% heat-inactivated Foetal Calf Serum (FCS) (PAA, A15-101)). Hep-G2 and SK-Hep1 cells were thawed in Minimum Essential Media (MEM) (Sigma M2279) with 1% non-essential amino acids (Sigma M7145), 2 mM Glutamine (Sigma G7513) and 10% FCS. SK-OV-3 cells were thawed in McCoy's 5A medium (Sigma, M8403) with 15% FCS. All cells were passaged by washing once in cation-free dPBS (Sigma, D1408), and incubated for 3 minutes with trypsin ([0.5 μg/ml]/EDTA [0.2 μg/ml] (Sigma, T4174) in dPBS). Passage was completed at 37° C., and cells were transferred to the appropriate media. Prior to seeding at defined cell density, cells were recovered in medium, centrifuged and resuspended for counting.
(§2) To prepare cells for viability assays, cells were transferred into 96 well tissue culture plates (Cultek), and resuspended in 100 µL at the following densities: 10,000 cells/well (Hep-G2 and MiaPaCa-2), 5000 cells/well (Panc-1 and SK-OV-3) or 3000 cells/well (HCT-116). Following 24 hours of incubation, media was removed and replaced with 100 µL media spiked with QTX125 and the test chemotherapeutic agents. Stock solutions for the agents used in this study are shown below in Table 1. Cells were incubated for a further 72 hours before cell viability was assessed using both ALAMAR® and hexosaminidase assays.
(§3) For the ALAMAR® blue assay, media containing QTX125 and the test chemotherapeutic agents was removed, and cells were stained using ALAMAR® blue (BioSource DAL 1100) for 4 hours at 37° C., following the manufacturer's instructions. Relative fluorescent intensity was measured using a Cytofluor® plate reader (Millipore) at 535/590 nm (Excitation/emission). This measure directly correlates with the number of viable cells present in each well.
(§4) A number of appropriate control samples were included. First, absorbance values measured in reagent ‘blank’ wells (containing cell culture medium and colorimetric agent only) were subtracted from ‘test’ sample-containing wells. ‘Blank’ absorbance values were routinely between 5 and 10% of the values recorded in test wells. Absorbance values recorded in test wells were then compared against wells containing (i) cells stimulated with QTX125 only; (ii) cells stimulated with sorafenib, gemcitabine or bortezomib only and/or (iii) unstimulated cells, as appropriate.
(§5) Control values were normalised to 100% and percentage (%) viability was calculated. Data were used to plot log dose-response curves using a sigmoid dose-response (variable slope) equation. EC50 values were obtained using Equation 1, where ‘X’ is the logarithmic concentration; ‘Y’ is the response output and it is assumed that Y starts at bottom of the graph and reaches the top with an overall sigmoid shape.
(§6) Prior to assessing the oncolytic efficacy of QTX125-containing combination therapies, the oncolytic effect of each test agent was assessed in isolation. Dose-response curves were produced by serial dilution (1:1), thereby allowing monotherapy EC50 values to be calculated.
(§7) Chemotherapeutic agents were added to wells at a starting concentration of 100 μM. However, it was quickly determined that it was not possible to use this range for all chemotherapeutic agents tested. An optimization study was therefore completed to identify suitable maximum (‘high’) doses for each agent and in each individual cell line.

[2] = tested on: Hep-G2 hepatic cancer cells; test: Cell viability, ALAMAR blue assay, monotherapy; type: cell-based
Procedure: as §1, §2, §3, §4, §5, §6, §7

[3] = tested on: MiaPaCa-2 pancreatic cancer cells; test: Cell viability, ALAMAR blue assay, monotherapy; type: cell-based
Procedure: as §1, §2, §3, §4, §5, §6, §7

[4] = tested on: Panc-1 pancreatic cancer cells; test: Cell viability, ALAMAR blue assay, monotherapy; type: cell-based
Procedure: as §1, §2, §3, §4, §5, §6, §7

[5] = tested on: SK-OV-3 ovarian cancer cells; test: Cell viability, ALAMAR blue assay, monotherapy; type: cell-based
Procedure: as §1, §2, §3, §4, §5, §6, §7

[6] = tested on: HCT-116 colonic cancer cells; test: Cell viability, hexosaminidase assay, monotherapy; type: cell-based
Procedure: as §1, §2
(§8) For the hexosaminidase assay, media containing QTX125 and the test chemotherapeutic agents was removed, and cells were washed once with PBS. 60 μL of substrate solution (containing: 7.5 mM p-nitrophenol-N-acetyl-beta-D-glucosamide [Sigma N-9376], 0.1 M sodium citrate, pH 5.0 and 0.25% Triton X-100) was added to each well and cells were incubated at 37° C. for at least 1 hour. Incubating cells in this manner causes the substrate solution to become bright yellow, at which point 90 μL of developer solution (containing 50 mM Glycine pH 10.4 and 5 mM EDTA) was added to each well. Absorbance at 410 nm was recorded using a plate reader.
as §4, §5, §6, §7

[7] = tested on: Hep-G2 hepatic cancer cells; test: Cell viability, hexosaminidase assay, monotherapy; type: cell-based
Procedure: as §1, §2, §8, §4, §5, §6, §7

[8] = tested on: MiaPaCa-2 pancreatic cancer cells; test: Cell viability, hexosaminidase assay, monotherapy; type: cell-based
Procedure: as §1, §2, §8, §4, §5, §6, §7

[9] = tested on: Panc-1 pancreatic cancer cells; test: Cell viability, hexosaminidase assay, monotherapy; type: cell-based
Procedure: as §1, §2, §8, §4, §5, §6, §7

[10] = tested on: SK-OV-3 ovarian cancer cells; test: Cell viability, hexosaminidase assay, monotherapy; type: cell-based
Procedure: as §1, §2, §8, §4, §5, §6, §7

[11] = Pharmacokinetic properties; type: in vivo; conditions: compared with other histone deacetylase inhibitors
[12] = tested on: mantle cell lymphoma, lung cancer and pancreatic cancer xenografts; conditions: lung cancer and pancreatic cancer xenograft murine models; cited from earlier work
[13] = tested on: multiple sclerosis mice models; conditions: two different multiple sclerosis mice models; cited from earlier work
[14] = 72 hours of high-dose monotherapy (Table 2: QTX125 1, sorafenib 100, gemcitabine 10, bortezomib 1 μM)
[15] = Homo sapiens, 72 h, read-out: EC50 dose of monotherapy
[16] = 72 hours of high-dose monotherapy (Table 2: QTX125 5, sorafenib 100, gemcitabine 100, bortezomib 1 μM)
[17] = Homo sapiens, HepG2, 72 h, read-out: EC50 dose of monotherapy
[18] = 72 hours of high-dose monotherapy (Table 2: QTX125 100, sorafenib 100, gemcitabine 100, bortezomib 1 μM)
[19] = 72 hours of high-dose monotherapy (Table 2: QTX125 10, sorafenib 100, gemcitabine 10, bortezomib 1 μM)

SMILES: O=C(NO)c1ccc(CNC(=O)c2[nH]c(-c3ccc(O)cc3)cc2-c2ccoc2)cc1 [QTX125, 3-(3-Furyl)-N-{4-[(hydroxyamino)carbonyl]benzyl}-5-(4-hydroxyphenyl)-1 Hpyrrole-2-carboxamide]
- percentage (%) cell viabilities [1, 14]: 0.0%
- EC50 [1, 15]: 330 nM
- percentage (%) cell viabilities [2, 16]: 0.0%
- EC50 [2, 17]: 910 ± 200 nM
- percentage (%) cell viabilities [3, 18]: 0.0%
- EC50 ([3]; Homo sapiens, MIA PaCa-2, 72 h, 72 h, read-out: EC50 dose of monotherapy): 1790 ± 50 nM
- percentage (%) cell viabilities [4, 18]: 0.0%
- EC50 [4, 15]: 1400 ± 150 nM
- percentage (%) cell viabilities [5, 19]: 0.0%
- EC50 [5, 15]: 3000 ± 400 nM
- percentage (%) cell viabilities [6, 14]: 7.3%
- EC50 [6, 15]: 430 nM
- percentage (%) cell viabilities [7, 16]: 2.1%
- EC50 [7, 17]: 3300 ± 400 nM
- reduction of the population of viable cells ([7]; high-dose monotherapy, 72 hours): ~98%
- percentage (%) cell viabilities [8, 18]: 7.3%
- EC50 ([8]; Homo sapiens, MIA PaCa-2, 72 h, read-out: EC50 dose of monotherapy): 1500 ± 200 nM
- percentage (%) cell viabilities [9, 18]: 3.9%
- EC50 [9, 15]: 3600 ± 500 nM
- percentage (%) cell viabilities [10, 19]: 5.0%
- EC50 [10, 15]: 3600 ± 400 nM
- pharmacokinetic properties (half-lives and distribution volumes) [11]: higher half-lives and distribution volumes
- antitumoral efficacy [12]: high antitumoral efficacy
- efficacy in multiple sclerosis mice models [13]: high efficacy
